According to PubChem BioAssay AID248 (DTP/NCI, 2004):
“And” between values parts separate entries of the source, which are not always exact repeats. Identical values can stand only once. Toxic doses and inconclusive results are not listed. Rule as the data show it: active = T/C of 150% or more; inactive = T/C below 125%.

System: L1210 leukemia ip in BDF1 mice, survival T/C
Test: NCI In Vivo Anticancer Drug Screen. Data for tumor model L1210 Leukemia (intraperitoneal) in B6D2F1 (BDF1) mice
Conditions: endpoint: mean survival time, higher = longer survival
Procedure, shortened: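 Survival endpoint. Drug-treated group vs vehicle group, expressed as T divided by C. Tumor passaged by transplantation.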

[1] = dose: 12.5 mg/kg/injection, schedule: Q04DX003 (ip), vehicle: saline with Tween-80
[2] = dose: 25.0 mg/kg/injection, schedule: Q04DX003 (ip), vehicle: saline with Tween-80
[3] = dose: 50.0 mg/kg/injection, schedule: Q04DX003 (ip), vehicle: saline with Tween-80
[4] = dose: 25.0 mg/kg/injection, schedule: Q01DX009 (ip), vehicle: Klucel (hydroxypropylcellulose) (HPC)
[5] = dose: 50.0 mg/kg/injection, schedule: Q01DX009 (ip), vehicle: Klucel (hydroxypropylcellulose) (HPC)
[6] = dose: 100.0 mg/kg/injection, schedule: Q01DX009 (ip), vehicle: Klucel (hydroxypropylcellulose) (HPC)
[7] = dose: 100.0 mg/kg/injection, schedule: Q04DX003 (ip), vehicle: Klucel (hydroxypropylcellulose) (HPC)

Measured: T/C

CCCCCCC1CCCCN1 (stereo not drawn)
inactive: dose: 5.0 mg/kg/injection, schedule: Q01DX001 (ip), vehicle: saline 104 % of control | dose: 10.0 mg/kg/injection, schedule: Q01DX001 (ip), vehicle: saline 96 % of control | [1] 103 % of control | dose: 20.0 mg/kg/injection, schedule: Q01DX001 (ip), vehicle: saline 98 % of control | [2] 98 % of control | dose: 40.0 mg/kg/injection, schedule: Q01DX001 (ip), vehicle: saline 96 % of control | [3] 103 % of control

CCCCCCCC[N+](C)(CCCCCCCC)CCCCCCCC
inactive: dose: 0.04 mg/kg/injection, schedule: Q01DX009 (ip), vehicle: saline 86 % of control | dose: 0.09 mg/kg/injection, schedule: Q01DX009 (ip), vehicle: saline 100 % of control | dose: 0.19 mg/kg/injection, schedule: Q01DX009 (ip), vehicle: saline 101 % of control | dose: 0.19 mg/kg/injection, schedule: Q04DX003 (ip), vehicle: acetone 112 % of control | dose: 0.28 mg/kg/injection, schedule: Q01DX009 (ip), vehicle: saline with Tween-80 114 % of control | dose: 0.39 mg/kg/injection, schedule: Q01DX001 (ip), vehicle: saline with Tween-80 105 % of control | dose: 0.43 mg/kg/injection, schedule: Q01DX009 (ip), vehicle: saline with Tween-80 116 % of control | dose: 0.5 mg/kg/injection, schedule: Q01DX015 (ip), vehicle: saline 97 % of control | dose: 0.64 mg/kg/injection, schedule: Q01DX009 (ip), vehicle: saline with Tween-80 118 % of control | dose: 0.78 mg/kg/injection, schedule: Q01DX001 (ip), vehicle: saline with Tween-80 90 % of control | dose: 1.0 mg/kg/injection, schedule: Q01DX015 (ip), vehicle: saline 95 % of control | dose: 1.56 mg/kg/injection, schedule: Q01DX001 (ip), vehicle: saline with Tween-80 114 % of control

CCN(CC)C(=O)c1cc(NC(=O)Nc2ccc(C3=NCCN3)cc2)cc(NC(=O)Nc2ccc(C3=NCCN3)cc2)c1
inactive: dose: 62.0 mg/kg/injection, schedule: Q01DX Z (ip), vehicle: carboxymethylcellulose (CMC) 91 % of control | dose: 125.0 mg/kg/injection, schedule: Q01DX Z (ip), vehicle: carboxymethylcellulose (CMC) 97 % of control | dose: 250.0 mg/kg/injection, schedule: Q01DX Z (ip), vehicle: carboxymethylcellulose (CMC) 97 % of control | dose: 500.0 mg/kg/injection, schedule: Q01DX Z (ip), vehicle: carboxymethylcellulose (CMC) 88 % of control

O=c1c(Br)c[nH]cc1Br
inactive: dose: 12.5 mg/kg/injection, schedule: Q01DX009 (ip), vehicle: Klucel (hydroxypropylcellulose) (HPC) 91 % of control | [4] 111 % of control | [5] 91 % of control | [6] 98 % of control

CC1CCCCC1C(=O)N1CCCC1 (stereo not drawn)
inactive: dose: 100.0 mg/kg/injection, schedule: Q04DX002 (ip), vehicle: saline 101 % of control | dose: 200.0 mg/kg/injection, schedule: Q04DX002 (ip), vehicle: saline 105 % of control

Cc1[nH]c(=O)[nH]c(=O)c1Br
inactive: dose: 37.0 mg/kg/injection, schedule: Q01DX Z (ip), vehicle: methylcellulose (MC) 91 % of control | dose: 75.0 mg/kg/injection, schedule: Q01DX Z (ip), vehicle: methylcellulose (MC) 96 % of control | dose: 150.0 mg/kg/injection, schedule: Q01DX Z (ip), vehicle: methylcellulose (MC) 86 % of control

OCc1nc2nc(Cl)c(Cl)nc2[nH]1
inactive: dose: 50.0 mg/kg/injection, schedule: Q01DX009 (ip), vehicle: saline 93 % of control | dose: 100.0 mg/kg/injection, schedule: Q01DX009 (ip), vehicle: saline 98 % of control | dose: 100.0 mg/kg/injection, schedule: Q04DX003 (ip), vehicle: saline 107 % of control | dose: 200.0 mg/kg/injection, schedule: Q01DX009 (ip), vehicle: saline 95 % of control | dose: 200.0 mg/kg/injection, schedule: Q04DX003 (ip), vehicle: saline 98 % of control | dose: 400.0 mg/kg/injection, schedule: Q04DX003 (ip), vehicle: saline 96 % of control

CCCCCCSC(=N)N
inactive: dose: 12.5 mg/kg/injection, schedule: Q01DX001 (ip), vehicle: saline 95 % of control | dose: 12.5 mg/kg/injection, schedule: Q04DX002 (ip), vehicle: saline 94 % of control and 97 % of control | dose: 12.5 mg/kg/injection, schedule: Q04DX003 (ip), vehicle: saline 119 % of control | dose: 25.0 mg/kg/injection, schedule: Q01DX001 (ip), vehicle: saline 100 % of control | dose: 25.0 mg/kg/injection, schedule: Q04DX002 (ip), vehicle: saline 94 % of control and 100 % of control | dose: 25.0 mg/kg/injection, schedule: Q04DX003 (ip), vehicle: saline 104 % of control | dose: 50.0 mg/kg/injection, schedule: Q01DX001 (ip), vehicle: saline 89 % of control | dose: 50.0 mg/kg/injection, schedule: Q04DX002 (ip), vehicle: saline 103 % of control and 106 % of control | dose: 50.0 mg/kg/injection, schedule: Q04DX003 (ip), vehicle: saline 102 % of control

CC1=CC(=C(C#N)C#N)CC(C)(C)C1
inactive: dose: 100.0 mg/kg/injection, schedule: Q04DX002 (ip), vehicle: Klucel (hydroxypropylcellulose) (HPC) 101 % of control | dose: 200.0 mg/kg/injection, schedule: Q04DX002 (ip), vehicle: Klucel (hydroxypropylcellulose) (HPC) 101 % of control | dose: 400.0 mg/kg/injection, schedule: Q04DX002 (ip), vehicle: Klucel (hydroxypropylcellulose) (HPC) 93 % of control

CSc1nnc(-c2cccs2)s1
inactive: [7] 98 % of control

N#Cc1cnc(N)cc1N
inactive: [4] 96 % of control | dose: 25.0 mg/kg/injection, schedule: Q04DX003 (ip), vehicle: Klucel (hydroxypropylcellulose) (HPC) 97 % of control | [5] 98 % of control | dose: 50.0 mg/kg/injection, schedule: Q04DX003 (ip), vehicle: Klucel (hydroxypropylcellulose) (HPC) 100 % of control | [6] 104 % of control | [7] 101 % of control and 104 % of control | dose: 200.0 mg/kg/injection, schedule: Q04DX003 (ip), vehicle: Klucel (hydroxypropylcellulose) (HPC) 113 % of control

CC(=O)CC(C)=NCCN=C(C)CC(C)=O.[Cu]
inactive: dose: 6.0 mg/kg/injection, schedule: Q01DX009 (ip), vehicle: saline with Tween-80 97 % of control | dose: 12.0 mg/kg/injection, schedule: Q01DX009 (ip), vehicle: saline with Tween-80 98 % of control | dose: 12.5 mg/kg/injection, schedule: Q01DX001 (ip), vehicle: saline with Tween-80 94 % of control | [1] 93 % of control | dose: 25.0 mg/kg/injection, schedule: Q01DX001 (ip), vehicle: saline with Tween-80 91 % of control | dose: 25.0 mg/kg/injection, schedule: Q01DX009 (ip), vehicle: saline with Tween-80 101 % of control | [2] 100 % of control | dose: 50.0 mg/kg/injection, schedule: Q01DX001 (ip), vehicle: saline with Tween-80 91 % of control | [3] 88 % of control

Clc1ccnc(NC2CCCCC2)c1
inactive: dose: 100.0 mg/kg/injection, schedule: Q01DX001 (ip), vehicle: saline 92 % of control | dose: 200.0 mg/kg/injection, schedule: Q01DX001 (ip), vehicle: saline 98 % of control | dose: 400.0 mg/kg/injection, schedule: Q01DX001 (ip), vehicle: saline 100 % of control

C=CS(=O)(=O)Cc1ccc(Cl)cc1
inactive: dose: 10.0 mg/kg/injection, schedule: Q04DX002 (ip), vehicle: Klucel (hydroxypropylcellulose) (HPC) 117 % of control | dose: 20.0 mg/kg/injection, schedule: Q04DX002 (ip), vehicle: Klucel (hydroxypropylcellulose) (HPC) 106 % of control | dose: 40.0 mg/kg/injection, schedule: Q04DX002 (ip), vehicle: Klucel (hydroxypropylcellulose) (HPC) 98 % of control
